Here are results for 26 compounds from patent publication US10988433B2, “Cyclohexyl GPR40 agonists for the treatment of type II diabetes” (Janssen Pharmaceutica NV, priority 2016, dated 2021).

For one test, the target named is T1, rat GPR40 (Rattus norvegicus, UniProt Q8K3T4).
T1 construct: expressed in transfected cells
Description: GPR40 calcium flux assay, HEK293 cells stably expressing rat GPR40. The format is cell-based. The settings on record: transfected HEK293 cells stably expressing rat GPR40, Fluo 8 dye, read-out: rGPR40 Ca2+ Assay EC50. As for the experimental part:
(§1) Compounds were tested in a calcium flux assay using transfected HEK293 cells stably expressing either human GPR40 or rat GPR40. Human GPR40 expressing cells were cultured in DMEM-High Glucose media supplemented with 10% fetal bovine serum, 1×L-Glutamine, 1×Penicillin/Streptomycin and 500 μg/mL G418. Rat GPR40 expressing cells were cultured in DMEM-High Glucose media supplemented with 10% fetal bovine serum and 1 μg/mL puromycin. Cells were plated into poly-D-lysine coated 384-well plates and cultured overnight in a 37° C. humidified tissue culture incubator under 5% CO2/[…] atmosphere. On the day of the experiment, the culture media was replaced with assay buffer (HBSS, 20 mM HEPES, 0.1% BSA) and the cells incubated at 37° C. for 1 h. Calcium-sensitive fluorescent dye (Fluo 8 No-Wash Calcium Dye, ABD Bioquest) was then added and the cells incubated for another 30 min at 37° C. followed by 15 min at room temperature while protected from the light. The cell plate and a plate of diluted compounds of Formula (I) were loaded into a fluorescent plate reader that added compounds onto the cells while measuring the fluorescence intensity of each well. The plate reader recorded fluorescence intensity at 1 second intervals for 8 min and provided the data for analysis in an Excel format. EC50 values were calculated using Prism (GraphPad) software.
For orientation: Calcium assays in cells follow changes in intracellular calcium, usually with a dye or a luminescent sensor.

The next test addresses T2, human GPR40 (Homo sapiens, UniProt O14842).
T2 construct: expressed in transfected cells
Description: GPR40 calcium flux assay, HEK293 cells stably expressing human GPR40. The format is cell-based. The settings on record: transfected HEK293 cells stably expressing human GPR40, Fluo 8 dye, read-out: hGPR40 Ca2+ Assay EC50. As for the experimental part: as §1

T2 sequence (O14842 whole entry): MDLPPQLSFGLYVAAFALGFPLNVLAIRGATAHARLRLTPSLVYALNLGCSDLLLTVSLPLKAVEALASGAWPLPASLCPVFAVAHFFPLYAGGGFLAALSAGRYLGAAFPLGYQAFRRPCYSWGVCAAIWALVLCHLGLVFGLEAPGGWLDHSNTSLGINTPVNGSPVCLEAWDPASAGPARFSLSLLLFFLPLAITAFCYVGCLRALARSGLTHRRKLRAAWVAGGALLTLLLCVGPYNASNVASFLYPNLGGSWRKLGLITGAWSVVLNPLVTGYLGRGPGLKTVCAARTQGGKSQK
T1 sequence (Q8K3T4 whole entry): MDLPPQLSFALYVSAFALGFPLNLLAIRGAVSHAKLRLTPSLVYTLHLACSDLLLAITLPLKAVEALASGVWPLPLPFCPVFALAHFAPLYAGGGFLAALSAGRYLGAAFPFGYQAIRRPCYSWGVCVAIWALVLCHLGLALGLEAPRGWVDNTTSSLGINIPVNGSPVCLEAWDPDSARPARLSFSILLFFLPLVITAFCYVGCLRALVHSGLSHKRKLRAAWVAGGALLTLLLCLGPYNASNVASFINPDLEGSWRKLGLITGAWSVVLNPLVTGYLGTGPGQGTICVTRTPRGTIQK

In the case of `COc1ccc(F)c(C2CCC(COc3cccc([C@@H](CC(=O)O)C4CC4)c3)C(CC(C)C)C2)c1` (stereo partly drawn) [Cpd 29, (3S)-3-Cyclopropyl-3-(3-((4-(2-fluoro-5-methoxyphenyl)-2-isobutylcyclohexyl)methoxy)phenyl)propanoic acid], the figures for the EC50 at rat GPR40 and at human GPR40 were 40.9 nM and 17.9 nM, respectively.
Take `COc1cc([C@H]2CC[C@H](COc3cccc([C@H](C4CC4)[C@@](C)(F)C(=O)O)c3)CC2)c(F)cn1` [Cpd 62]: the EC50 (commonly the midpoint of the concentration-response curve) at rat GPR40 was found to be 0.56 nM; on human GPR40, 0.25 nM.
In the same order, the values of `COc1ccc(F)c([C@]2(OC)CC[C@@H](COc3cccc([C@@H](CC(=O)O)C4CC4)c3)CC2)c1` [Cpd 11, (S)-3-Cyclopropyl-3-(3-(((1s,4R)-4-(2-fluoro-5-methoxyphenyl)-4-methoxycyclohexyl)methoxy)phenyl)propanoic acid] are 18.4 nM and 2.1 nM.
In the same order, the values of `COc1ccnc(C2CCC(COc3cc([C@@H](CC(=O)O)C4CC4)ccn3)CC2)n1` (stereo partly drawn) [Cpd 49, (S)-3-Cyclopropyl-3-(2-((4-(4-methoxypyrimidin-2-yl)cyclohexyl)methoxy)pyridin-4-yl)propanoic acid] are 1110 nM and 244 nM.
In the same order, the values of `COc1ccc(F)c(C2CCC(COc3cccc(C(CC(=O)O)C4CC4)c3)CC2)c1` (stereo not shown) [Cpd 55, 3-Cyclopropyl-3-(3-(((1 s,4 s)-4-(2-fluoro-5-methoxyphenyl)cyclohexyl)methoxy)phenyl)propanoic acid] are 346 nM and 133 nM.
In the case of `CC#CC(CC(=O)O)c1cccc(OC[C@H]2CC[C@@H](c3cc(OC)ccc3F)CC2)c1` (stereo partly shown) [Cpd 42, 3-(3-(((1 s,4s)-4-(2-Fluoro-5-methoxyphenyl)cyclohexyl)methoxy)phenyl)hex-4-ynoic acid], the EC50 at rat GPR40 was determined as 401 nM; at human GPR40, 3100 nM.
Regarding `COc1ccc(F)c([C@H]2CC[C@@H](CNc3cccc([C@@H](CC(=O)O)C4CC4)c3)CC2)c1` [Cpd 47, (S)-3-cyclopropyl-3-(3-((((1s,4R)-4-(2-fluoro-5-methoxyphenyl)cyclohexyl)methyl)amino)phenyl)propanoic acid], the EC50 came out at 147 nM at rat GPR40 and 71.5 nM at human GPR40.
As to `COc1ccc(F)c(C2=CCC(COc3cccc([C@H](C4CC4)[C@@](C)(F)C(=O)O)c3)CC2)c1` (stereo partly drawn) [Cpd 76, (2R,3S)-3-Cyclopropyl-2-fluoro-3-(3-((2′-fluoro-5′-methoxy-2,3,4,5-tetrahydro-[1,1′-biphenyl]-4-yl)methoxy)phenyl)-2-methylpropanoic acid], the figures for the concentration for a half-maximal effect (EC50) at rat GPR40 and on human GPR40 were 0.71 nM and 0.18 nM, respectively.
For `C[C@](F)(C(=O)O)[C@H](c1cccc(OC[C@H]2CC[C@H](c3cc(OC(F)(F)F)ccc3F)CC2)c1)C1CC1` [Cpd 74, (2R,3S)-3-Cyclopropyl-2-fluoro-3-(3-(((1r,4S)-4-(2-fluoro-5-(trifluoromethoxy)phenyl)cyclohexyl)methoxy)phenyl)-2-methylpropanoic acid] the same measures were 16.2 nM and 14.1 nM.
Consider `COc1ccc(F)c([C@]2(O)CC[C@@H](COc3cccc([C@@H](CC(=O)O)C4CC4)c3)CC2)c1` [Cpd 3, (S)-3-Cyclopropyl-3-(3-(((1s,4R)-4-(2-fluoro-5-methoxyphenyl)-4-hydroxycyclohexyl)methoxy)phenyl)propanoic acid], for which the EC50 at rat GPR40 was 160 nM; at human GPR40, 24.8 nM.
With `CCc1ccc(F)c([C@H]2CC[C@H](COc3cccc([C@H](C4CC4)[C@H](C)C(=O)O)c3)CC2)c1` [Cpd 57, (2S,3R)-3-cyclopropyl-3-(3-(((1r,4R)-4-(5-ethyl-2-fluorophenyl)cyclohexyl)methoxy)phenyl)-2-methylpropanoic acid], the EC50 at rat GPR40 was determined as 1.2 nM; at human GPR40 it was 0.5 nM.
On to `COc1ccc(F)c([C@H]2CC[C@@H](COc3cc([C@H](CC(=O)O)C4CC4)ccn3)CC2)c1` [Cpd 41, (R)-3-Cyclopropyl-3-(2-(((1s,4S)-4-(2-fluoro-5-methoxyphenyl)cyclohexyl)methoxy)pyridin-4-yl)propanoic acid], for which the EC50 at rat GPR40 is 43 nM; at human GPR40, 18 nM.
In the same order, the values of `COc1ccc(F)c([C@H]2CC[C@H](COc3cccc([C@@H](Cc4nnn[nH]4)C4CC4)c3)CC2)c1` [Cpd 17, 5-((S)-2-Cyclopropyl-2-(3-(((1r,4S)-4-(2-fluoro-5-methoxyphenyl)cyclohexyl)methoxy)phenyl)ethyl)-1H-tetrazole] are 388 nM and 44.3 nM.
In the same order, the values of `COc1ccc(F)c([C@H]2CC[C@H](CNc3cccc([C@H](C4CC4)C(C)(F)C(=O)O)c3)CC2)c1` (stereo partly drawn) [Cpd 77, (3S)-3-Cyclopropyl-2-fluoro-3-(3-((((1r,4S)-4-(2-fluoro-5-methoxyphenyl)cyclohexyl)methyl)amino)phenyl)-2-methylpropanoic acid] are 10.4 nM and 1.72 nM.
Regarding `COc1cc(C2CCC(COc3cccc([C@@H](CC(=O)O)C4CC4)c3)C(C)C2)c(F)cn1` (stereo partly drawn) [Cpd 33, (3S)-3-Cyclopropyl-3-(3-((4-(5-fluoro-2-methoxypyridin-4-yl)-2-methylcyclohexyl)methoxy)phenyl)propanoic acid], the EC50 turned out to be 17.3 nM on rat GPR40 and 3.7 nM on human GPR40.
For `COc1ccc(F)c([C@H]2CC[C@@H](COc3ccnc(C(CC(=O)O)C4CC4)c3)CC2)c1` (stereo partly shown) [Cpd 35, 3-Cyclopropyl-3-(4-(((1s,4s)-4-(2-fluoro-5-methoxyphenyl)cyclohexyl)methoxy)pyridin-2-yl)propanoic acid], the EC50 on rat GPR40 came to 5320 nM; on human GPR40, 1840 nM.
For the compound `COc1cc([C@H]2CC[C@@H](COc3cccc([C@@H](CC(=O)O)C4CC4)c3)CC2)c(F)cn1` [Cpd 10, (S)-3-Cyclopropyl-3-(3-(((1s,4R)-4-(5-fluoro-2-methoxypyridin-4-yl)cyclohexyl)methoxy)phenyl)propanoic acid], the figures for the concentration for a half-maximal effect (EC50) at rat GPR40 and at human GPR40 were 76 nM and 26.9 nM, respectively.
On to `COc1ccc(F)c([C@H]2CC[C@H](COc3ccnc(C(CC(=O)O)C4CC4)c3)CC2)c1` (stereo partly shown) [Cpd 34, 3-Cyclopropyl-3-(4-(((1r,4r)-4-(2-fluoro-5-methoxyphenyl)cyclohexyl)methoxy)pyridin-2-yl)propanoic acid], for which the EC50 turned out to be 282 nM on rat GPR40 and 62.4 nM on human GPR40.
Regarding `COc1cc([C@H]2CC[C@H](COc3cncc(C(CC(=O)O)C4CC4)c3)CC2)c(F)cn1` (stereo partly shown) [Cpd 22, 3-Cyclopropyl-3-(5-(((1r,4r)-4-(5-fluoro-2-methoxypyridin-4-yl)cyclohexyl)methoxy)pyridin-3-yl)propanoic acid], the EC50 worked out at 51.9 nM on rat GPR40 and 17.6 nM at human GPR40.
In the same order, the values of `COc1ccc(F)c([C@H]2CC[C@@H](COc3cccc([C@H](C4CC4)[C@H](C)C(=O)O)c3)CC2)c1` [Cpd 53, (2S,3R)-3-cyclopropyl-3-(3-(((1s,4S)-4-(2-fluoro-5-methoxyphenyl)cyclohexyl)methoxy)phenyl)-2-methylpropanoic acid] are 7.7 nM and 2 nM.
Take `COc1cc([C@H]2CC[C@H](COc3cccc([C@H](C4CC4)[C@](C)(F)C(=O)O)c3)CC2)c(F)cn1` [Cpd 63]: the EC50 came out at 86.7 nM on rat GPR40 and 32.6 nM on human GPR40.
In the same order, the values of `C[C@](F)(C(=O)O)[C@H](c1cccc(OCC2CCC(c3cc(F)ccc3F)CC2)c1)C1CC1` (stereo partly drawn) [Cpd 75, (2R,3S)-3-Cyclopropyl-3-(3-((4-(2,5-difluorophenyl)cyclohexyl)methoxy)phenyl)-2-fluoro-2-methylpropanoic acid] are 8.93 nM and 0.44 nM.
In the same order, the values of `COc1ccc(F)c([C@H]2CC[C@H](COc3cccc([C@H](C4CC4)[C@H](C)C(=O)O)c3)CC2)c1` [Cpd 52, (2S,3R)-3-cyclopropyl-3-(3-(((1r,4R)-4-(2-fluoro-5-methoxyphenyl)cyclohexyl)methoxy)phenyl)-2-methylpropanoic acid] are 0.4 nM and 0.2 nM.
For `COc1ccc(F)c([C@H]2CC[C@H](COc3cccc([C@H](C4CC4)C(C)(F)C(=O)O)c3)CC2)c1` (stereo partly drawn) [Cpd 58, (3S)-3-Cyclopropyl-2-fluoro-3-(3-(((1r,4S)-4-(2-fluoro-5-methoxyphenyl)cyclohexyl)methoxy)phenyl)-2-methylpropanoic acid] the same measures were 0.23 nM and 0.3 nM.
With `COc1ccc(F)c([C@H]2CC[C@H](COc3cccc(C(CC(=O)O)C4CC4)c3)CC2)c1` (mixture of isomers) [Cpd 56, 3-Cyclopropyl-3-(3-(((1r,4r)-4-(2-fluoro-5-methoxyphenyl)cyclohexyl)methoxy)phenyl) propanoic acid], the EC50 was 14.4 nM on rat GPR40 and 3 nM at human GPR40.
For `COc1ccc(F)c([C@H]2CC[C@@H](COc3cccc([C@H](CC(=O)O)C4CC4)c3)CC2)c1` [Cpd 37, (R)-3-Cyclopropyl-3-(3-(((1s,4S)-4-(2-fluoro-5-methoxyphenyl)cyclohexyl)methoxy)phenyl)propanoic acid] the same measures were 1320 nM and 687 nM.
